Assay results published in US10266537B2, “3-acetylenyl-pyrazole-pyrimidine derivative, and preparation method therefor and uses thereof” (Si Chuan University, priority 2015, dated 2019).
Read-outs that look alike come from different tables or passages of the source.

Legend:
[1] = molecular target: mTOR(h) (Homo sapiens (Human), UniProt P42345); assay: Kinase inhibition assay (KinaseProfiler, 33P-ATP); type: biochemical; conditions: compound at 10 μM, read-out: The percentage of the remaining active protein
[2] = molecular target: Ret (Homo sapiens (Human), UniProt P07949); assay: Kinase inhibition assay (KinaseProfiler, 33P-ATP); type: biochemical; conditions: Ret(h); compound at 10 μM; read-out: The percentage of the remaining active protein
Ret, sequence (P07949 29-1114): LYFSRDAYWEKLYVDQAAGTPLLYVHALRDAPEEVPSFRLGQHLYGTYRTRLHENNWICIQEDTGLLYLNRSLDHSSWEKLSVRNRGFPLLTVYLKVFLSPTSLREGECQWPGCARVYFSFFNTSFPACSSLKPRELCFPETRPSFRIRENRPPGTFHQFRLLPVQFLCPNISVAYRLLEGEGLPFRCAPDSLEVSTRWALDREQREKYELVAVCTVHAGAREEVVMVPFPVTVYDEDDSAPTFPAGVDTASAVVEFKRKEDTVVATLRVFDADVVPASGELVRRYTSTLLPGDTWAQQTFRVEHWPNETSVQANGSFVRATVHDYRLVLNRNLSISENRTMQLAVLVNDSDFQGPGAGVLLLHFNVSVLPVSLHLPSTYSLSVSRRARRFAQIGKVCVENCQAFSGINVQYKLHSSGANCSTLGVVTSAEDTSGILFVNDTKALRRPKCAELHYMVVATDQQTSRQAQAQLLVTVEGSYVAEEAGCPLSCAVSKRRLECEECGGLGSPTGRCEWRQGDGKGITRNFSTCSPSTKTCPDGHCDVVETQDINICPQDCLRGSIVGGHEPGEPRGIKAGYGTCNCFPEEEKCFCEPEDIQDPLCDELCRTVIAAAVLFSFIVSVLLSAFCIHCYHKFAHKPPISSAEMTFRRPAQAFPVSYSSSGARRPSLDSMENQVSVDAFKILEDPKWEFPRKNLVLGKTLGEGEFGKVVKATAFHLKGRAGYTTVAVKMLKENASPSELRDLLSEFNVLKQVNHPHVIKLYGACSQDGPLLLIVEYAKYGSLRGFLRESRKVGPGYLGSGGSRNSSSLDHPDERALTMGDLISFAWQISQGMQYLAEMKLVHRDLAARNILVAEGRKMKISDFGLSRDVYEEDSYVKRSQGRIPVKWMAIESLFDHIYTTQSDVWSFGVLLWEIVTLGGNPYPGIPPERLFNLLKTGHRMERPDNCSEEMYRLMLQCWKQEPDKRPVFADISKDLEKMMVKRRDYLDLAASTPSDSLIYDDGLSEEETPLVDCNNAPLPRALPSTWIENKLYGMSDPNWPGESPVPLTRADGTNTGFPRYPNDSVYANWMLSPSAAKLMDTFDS

[3] = molecular target: cKit(h) (Homo sapiens (Human), UniProt P10721); assay: Kinase inhibition assay (KinaseProfiler, 33P-ATP); type: biochemical; conditions: compound at 10 μM, read-out: The percentage of the remaining active protein
[4] = molecular target: Fyn (Homo sapiens (Human), UniProt P06241); assay: Kinase inhibition assay (KinaseProfiler, 33P-ATP); type: biochemical; conditions: Fyn(h); compound at 10 μM; read-out: The percentage of the remaining active protein
[5] = molecular target: Met(h) (Homo sapiens (Human), UniProt P08581); assay: Kinase inhibition assay (KinaseProfiler, 33P-ATP); type: biochemical; conditions: compound at 10 μM, read-out: The percentage of the remaining active protein
[6] = molecular target: cSRC(h) (Homo sapiens (Human), UniProt P12931); assay: Kinase inhibition assay (KinaseProfiler, 33P-ATP); type: biochemical; conditions: compound at 10 μM, read-out: The percentage of the remaining active protein
[7] = molecular target: Abl(T315I) (Homo sapiens (Human), UniProt P00519, T315I); assay: Kinase inhibition assay (KinaseProfiler, 33P-ATP); type: biochemical; conditions: Abl(T315I)(h); compound at 10 μM; read-out: The percentage of the remaining active protein
[8] = molecular target: DDR2 (Homo sapiens (Human), UniProt Q16832); assay: Kinase inhibition assay (KinaseProfiler, 33P-ATP); type: biochemical; conditions: DDR2(h); compound at 10 μM; read-out: The percentage of the remaining active protein
[9] = molecular target: Hck (Homo sapiens (Human), UniProt P08631); assay: Kinase inhibition assay (KinaseProfiler, 33P-ATP); type: biochemical; conditions: Hck(h); compound at 10 μM; read-out: The percentage of the remaining active protein
[10] = molecular target: Yes (Homo sapiens (Human), UniProt P07947); assay: Kinase inhibition assay (KinaseProfiler, 33P-ATP); type: biochemical; conditions: for IC50: Yes, ATP at Km
Yes, sequence (P07947 whole entry): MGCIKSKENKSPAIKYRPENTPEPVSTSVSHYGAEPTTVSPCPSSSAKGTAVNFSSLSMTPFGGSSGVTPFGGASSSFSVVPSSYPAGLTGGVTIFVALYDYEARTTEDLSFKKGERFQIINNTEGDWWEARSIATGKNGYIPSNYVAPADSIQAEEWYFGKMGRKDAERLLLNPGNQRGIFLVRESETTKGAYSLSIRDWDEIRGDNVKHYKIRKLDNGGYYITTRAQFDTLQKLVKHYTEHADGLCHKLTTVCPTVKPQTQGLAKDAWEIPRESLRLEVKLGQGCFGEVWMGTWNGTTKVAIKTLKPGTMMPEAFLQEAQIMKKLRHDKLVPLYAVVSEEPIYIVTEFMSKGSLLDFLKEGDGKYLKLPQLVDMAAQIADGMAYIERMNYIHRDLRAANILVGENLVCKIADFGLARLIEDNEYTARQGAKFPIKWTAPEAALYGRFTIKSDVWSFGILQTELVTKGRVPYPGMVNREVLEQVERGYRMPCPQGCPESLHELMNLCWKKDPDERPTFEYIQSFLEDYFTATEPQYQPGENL

[11] = molecular target: TrkA (Homo sapiens (Human), UniProt P04629); assay: Kinase inhibition assay (KinaseProfiler, 33P-ATP); type: biochemical; conditions: for IC50: TrkA, ATP at Km
TrkA, sequence (P04629 33-796): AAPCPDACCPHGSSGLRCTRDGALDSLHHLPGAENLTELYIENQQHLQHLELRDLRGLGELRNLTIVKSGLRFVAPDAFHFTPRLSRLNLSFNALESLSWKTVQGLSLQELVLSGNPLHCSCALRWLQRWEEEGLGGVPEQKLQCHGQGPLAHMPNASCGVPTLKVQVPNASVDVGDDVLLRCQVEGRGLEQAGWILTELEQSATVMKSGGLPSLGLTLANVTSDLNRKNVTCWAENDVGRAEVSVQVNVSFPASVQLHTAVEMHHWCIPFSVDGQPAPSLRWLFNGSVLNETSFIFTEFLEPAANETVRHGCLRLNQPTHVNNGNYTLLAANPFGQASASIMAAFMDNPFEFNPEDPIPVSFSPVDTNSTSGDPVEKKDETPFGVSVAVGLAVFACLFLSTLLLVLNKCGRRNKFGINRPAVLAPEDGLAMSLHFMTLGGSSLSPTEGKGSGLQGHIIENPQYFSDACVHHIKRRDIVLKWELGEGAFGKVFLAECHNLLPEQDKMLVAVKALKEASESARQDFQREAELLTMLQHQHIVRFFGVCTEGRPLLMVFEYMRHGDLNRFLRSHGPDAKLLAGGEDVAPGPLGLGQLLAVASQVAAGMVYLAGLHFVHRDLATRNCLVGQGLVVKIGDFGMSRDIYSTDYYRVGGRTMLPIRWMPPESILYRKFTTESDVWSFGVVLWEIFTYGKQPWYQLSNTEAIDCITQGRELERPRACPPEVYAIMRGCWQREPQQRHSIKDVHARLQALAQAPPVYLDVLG

[12] = molecular target: Lyn (Homo sapiens (Human), UniProt P07948); assay: Kinase inhibition assay (KinaseProfiler, 33P-ATP); type: biochemical; conditions: Lyn(h); compound at 10 μM; read-out: The percentage of the remaining active protein
Lyn, sequence (P07948 whole entry): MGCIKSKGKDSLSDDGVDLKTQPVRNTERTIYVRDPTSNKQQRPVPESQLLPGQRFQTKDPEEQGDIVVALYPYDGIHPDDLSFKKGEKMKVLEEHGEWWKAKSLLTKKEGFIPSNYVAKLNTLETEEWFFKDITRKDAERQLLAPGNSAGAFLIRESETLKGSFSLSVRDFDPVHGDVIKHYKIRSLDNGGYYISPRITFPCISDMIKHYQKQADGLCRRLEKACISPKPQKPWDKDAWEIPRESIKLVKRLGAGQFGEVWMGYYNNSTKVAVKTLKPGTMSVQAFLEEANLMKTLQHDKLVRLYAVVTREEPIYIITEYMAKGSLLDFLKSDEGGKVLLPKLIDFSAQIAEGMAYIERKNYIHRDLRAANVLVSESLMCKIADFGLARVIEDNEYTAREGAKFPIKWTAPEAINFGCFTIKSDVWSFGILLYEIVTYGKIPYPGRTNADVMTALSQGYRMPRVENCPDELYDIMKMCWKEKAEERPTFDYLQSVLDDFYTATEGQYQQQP

[13] = molecular target: EphB4 (Homo sapiens (Human), UniProt P54760); assay: Kinase inhibition assay (KinaseProfiler, 33P-ATP); type: biochemical; conditions: for remaining activity at 10 µM: EphB4(h), compound at 10 μM, read-out: The percentage of the remaining active protein
EphB4, sequence (P54760 16-987): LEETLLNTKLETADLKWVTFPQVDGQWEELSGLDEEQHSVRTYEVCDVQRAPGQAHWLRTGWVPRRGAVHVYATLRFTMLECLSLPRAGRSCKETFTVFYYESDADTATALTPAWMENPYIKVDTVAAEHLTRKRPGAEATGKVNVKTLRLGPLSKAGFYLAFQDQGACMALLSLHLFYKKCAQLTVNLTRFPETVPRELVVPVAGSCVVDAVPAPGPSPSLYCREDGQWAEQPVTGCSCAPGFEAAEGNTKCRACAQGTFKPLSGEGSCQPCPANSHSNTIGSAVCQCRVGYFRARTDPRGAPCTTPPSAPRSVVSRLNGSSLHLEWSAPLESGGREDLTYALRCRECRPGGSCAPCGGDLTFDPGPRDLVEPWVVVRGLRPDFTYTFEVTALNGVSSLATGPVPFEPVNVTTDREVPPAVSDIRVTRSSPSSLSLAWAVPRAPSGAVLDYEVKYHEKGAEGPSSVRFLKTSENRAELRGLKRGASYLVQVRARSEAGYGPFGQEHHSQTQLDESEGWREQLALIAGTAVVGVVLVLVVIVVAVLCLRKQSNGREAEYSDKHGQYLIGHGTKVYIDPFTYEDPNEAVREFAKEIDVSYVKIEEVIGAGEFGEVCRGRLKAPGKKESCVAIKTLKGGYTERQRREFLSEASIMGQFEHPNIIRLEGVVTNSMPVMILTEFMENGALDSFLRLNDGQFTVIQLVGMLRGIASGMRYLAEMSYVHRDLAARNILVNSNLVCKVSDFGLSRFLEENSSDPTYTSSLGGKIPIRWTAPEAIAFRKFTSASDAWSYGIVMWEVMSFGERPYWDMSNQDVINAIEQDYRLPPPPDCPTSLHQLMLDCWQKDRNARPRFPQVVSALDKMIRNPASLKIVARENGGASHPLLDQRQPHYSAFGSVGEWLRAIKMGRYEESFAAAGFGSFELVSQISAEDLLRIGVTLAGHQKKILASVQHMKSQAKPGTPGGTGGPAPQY

[14] = molecular target: ULK3(h) (Homo sapiens (Human), UniProt Q6PHR2); assay: Kinase inhibition assay (KinaseProfiler, 33P-ATP); type: biochemical; conditions: compound at 10 μM, read-out: The percentage of the remaining active protein
[15] = molecular target: Flt3(h) (Homo sapiens (Human), UniProt P36888); assay: Kinase inhibition assay (KinaseProfiler, 33P-ATP); type: biochemical; conditions: compound at 10 μM, read-out: The percentage of the remaining active protein
[16] = molecular target: FGFR1 (Homo sapiens (Human), UniProt P11362); assay: Kinase inhibition assay (KinaseProfiler, 33P-ATP); type: biochemical; conditions: FGFR1(h); compound at 10 μM; read-out: The percentage of the remaining active protein
FGFR1, sequence (P11362 22-822): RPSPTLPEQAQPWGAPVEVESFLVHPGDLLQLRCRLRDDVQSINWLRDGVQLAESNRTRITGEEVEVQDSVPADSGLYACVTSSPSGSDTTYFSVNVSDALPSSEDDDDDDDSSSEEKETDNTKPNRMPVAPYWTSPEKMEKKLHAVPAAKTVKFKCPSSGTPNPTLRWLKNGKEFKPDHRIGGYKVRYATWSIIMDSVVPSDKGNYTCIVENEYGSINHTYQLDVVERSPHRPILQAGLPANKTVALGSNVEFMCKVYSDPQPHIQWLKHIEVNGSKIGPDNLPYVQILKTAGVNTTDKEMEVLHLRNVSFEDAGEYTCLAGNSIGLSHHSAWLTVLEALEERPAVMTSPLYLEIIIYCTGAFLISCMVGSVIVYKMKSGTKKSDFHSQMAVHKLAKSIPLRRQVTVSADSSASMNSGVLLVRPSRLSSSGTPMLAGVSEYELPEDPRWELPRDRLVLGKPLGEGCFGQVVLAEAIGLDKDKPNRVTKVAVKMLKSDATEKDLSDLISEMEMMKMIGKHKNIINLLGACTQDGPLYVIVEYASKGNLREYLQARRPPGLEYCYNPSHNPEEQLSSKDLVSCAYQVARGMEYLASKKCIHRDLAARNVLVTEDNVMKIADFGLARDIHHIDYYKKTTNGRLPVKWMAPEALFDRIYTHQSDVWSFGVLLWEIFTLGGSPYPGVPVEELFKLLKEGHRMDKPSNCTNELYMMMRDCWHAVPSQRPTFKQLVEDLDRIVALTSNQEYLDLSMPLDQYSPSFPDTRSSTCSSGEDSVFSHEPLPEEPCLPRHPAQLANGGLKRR

[17] = system: MDA-MB-435; assay: Cell proliferation inhibition assay (MTT); type: cell-based, human; conditions: Homo sapiens, read-out: Proliferative inhibitory activity MDA-MB-435 (IC50 class)
Method: (§1) The remaining cell lines were cultured in DMEM complete medium containing 10% fetal bovine serum (MV4-11 cells 20%), 100 U/ml penicillin, 100 μg/mL streptomycin at 5% CO2, and 37° C.
(§2) The cells were seeded in 96-well plates with 200 μL of cell suspension per well and incubated overnight in a cell culture medium with a cell concentration of 1˜2×10^4 cells/mL. The next day, the supernatant was discarded (the suspension cell was centrifuged before it) and the cells were treated with gradient concentrations of the test compound, respectively. At the same time, the drug-free negative control group and the equal volume of solvent control group, DMSO concentration of 0.1%, each dose group set up three wells, 37° C., 5% CO2 conditions. After 72 hours, add 20 μL of MTT reagent at a concentration of 5 mg/mL per well. After incubation for 2-4 h, the supernatant was discarded and 150 μL of DMSO was added to each well. […] Determine the absorbance (A) value (λ=570 nm, A value is proportional to the number of living cells), whichever is the average. […] The experiment was repeated at least 3 times. Experimental data were expressed as mean, data statistics using t test, P<0.05 for the difference was statistically significant. The inhibitory effects of the following compounds on cell proliferation were expressed as IC50 or inhibition rates.

[18] = system: MDA-MB-231; assay: Cell proliferation inhibition assay (MTT); type: cell-based, human; conditions: Homo sapiens, read-out: Proliferative inhibitory activity MDA-MB-231 (IC50 class)
Method: as §1, §2

[19] = molecular target: c-Src(1-530) (Homo sapiens (Human), UniProt P12931); assay: Kinase inhibition assay (KinaseProfiler, 33P-ATP); conditions: c-Src(1-530); ATP at Km

Structure (SMILES) | remaining activity at 10 µM [2] [%] | remaining activity at 10 µM [3] [%] | remaining activity at 10 µM [4] [%] | remaining activity at 10 µM [6] [%] | remaining activity at 10 µM [8] [%] | remaining activity at 10 µM [9] [%] | IC50 [10] [nM] | IC50 [11] [nM] | remaining activity at 10 µM [12] [%] | remaining activity at 10 µM [13] [%] | remaining activity at 10 µM [16] [%] | also measured
Cc1ccc(C(=O)Nc2ccc(CN3CCN(C)CC3)c(C(F)(F)F)c2)cc1C#Cc1nn(C2CCNCC2)c2ncnc(N)c12 [Compound 120] | -16 | 18 | 1 | 0 | 3 | -2 | < 1 | 91 | -2 | -1 | -1 | remaining activity at 10 µM [1]: 96%; remaining activity at 10 µM [5]: 81%; remaining activity at 10 µM [7]: -1%; remaining activity at 10 µM ([10]; Yes(h), compound at 10 μM, read-out: The percentage of the remaining active protein): 0%; remaining activity at 10 µM ([11]; TrkA(h), compound at 10 μM, read-out: The percentage of the remaining active protein): 0%; IC50 ([13]; EphB4, ATP at Km): 28 nM; remaining activity at 10 µM [14]: 1%; remaining activity at 10 µM [15]: 0%
C=CC(=O)N1CCC(n2nc(C#Cc3cc(C(=O)Nc4ccc(CN5CCN(C)CC5)c(C(F)(F)F)c4)ccc3C)c3c(N)ncnc32)CC1 [Compound 121, 3-((1-(1-acryloyloxy-4-yl)-4-amino-1H-pyrazolo [3,4-d]pyrimidin-3-yl)ethynyl)-4-methyl-N-(4-((4-methylpiperazin-1-yl)methyl)-3-(trifluoromethyl)phenyl) benzamide] | -2 | 59 | -1 | 0 | 4 | 1 | 2 | 52 | 2 | 0 | -1 | IC50 ([17]; MDA-MB-435, 72 h): < 100 nM; IC50 ([18]; MDA-MB-231, 72 h): < 100 nM
Cc1ccc(NC(=O)c2cccc(C(F)(F)F)c2)cc1C#Cc1nn(C(C)C)c2ncnc(N)c12 [Compound 18] | – | – | – | – | – | – | – | – | – | – | – | IC50 ([17]; MDA-MB-435, MTT, 72 hours): 100 to 500 nM; IC50 [19]: 4 nM; IC50 ([18]; MDA-MB-231, MTT, 72 hours): < 100 nM
